Several values for one entry are separate records, joined by “and”; a condition that tells them apart may be missing. Identical values can stand only once. Entries after “also recorded” stand apart in the source; their conditions may differ.

The subject of data set [1] is dorsal root afferent-mediated synaptic inputs to dorsal horn neurones. Put plainly: whole-cell recording in spinal cord slices from Chung models: dorsal root afferent-mediated synaptic inputs (evoked EPSPs/IPSPs). The conditions noted are these: peptide 5 μM; dorsal root stimulation 0.1 Hz. The data set is classed as cell-based, rat. As to the method:
(§1) An in vitro spinal cord slice with intact dorsal root afferents combined with single-cell whole-cell patch clamp electrophysiological recording techniques was used to assess the electrophysiological properties of the peptides having the amino acid sequence of SEQ ID NO:2, 3, 4 and 5.
(§2) Chung model rats, aged 8 to 12 weeks, were housed in an air-conditioned room on a 12 hour light/dark cycle with food and water available ad libitum. The rats were terminally anaesthetized using isofluorane and decapitated. The vertebral column, rib cage and surrounding tissues were rapidly removed and pinned under ice-cold (<4° C.), high sucrose-containing artificial cerebrospinal fluid (aCSF) comprising: 127 mM sucrose, 1.9 mM KCl, 1.2 mM KH2PO4, 0.24 mM CaCl2, 3.9 mM MgCl2, 26 mM NaHCO3, 10 mM D-glucose and 0.5 mM ascorbic acid. A laminectomy was performed and the spinal cord and associated roots gently dissected and teased out of the spinal column and surrounding tissues. Dura and pia mater and ventral roots were subsequently removed with fine forceps and the spinal cord hemisected. Care was taken to ensure dorsal root inputs to the spinal cord were maintained. The hemisected spinal cord-dorsal root preparations were secured to a tissue slicer and spinal cord slices (400 to 450 μm thick) with dorsal roots attached were cut in chilled (<4° C.) high sucrose aCSF using a Leica VT1000s microtome.
(§3) Slices were transferred to a small beaker containing ice cold aCSF with 127 mM NaCl, 1.9 mM KCl, 1.2 mM KH2PO4, 1.3 mM MgCl2, 2.4 mM CaCl2, 26 mM NaHCO3 and 10 mM D-glucose, and rapidly warmed to 35° C. ±1° C. in a temperature-controlled water bath over a 20 minute period, then subsequently removed and maintained at room temperature (22° C. ±2° C.) prior to electrophysiological recording. Electrophysiological recording was performed in aCSF comprising 127 mM NaCl, 1.9 mM KCl, 1.2 mM KH2PO4, 1.3 mM MgCl2, 2.4 mM CaCl2, 26 mM NaHCO3 and 10 mM D-glucose.
Whole-cell recordings were performed at 34-35° C. from Lamina I or II neurones in the dorsal horn of the spinal cord slices using Axopatch 1D and/or Multiclamp 700B amplifies and using the “blind” version of the patch-clamp technique.
Patch pipettes were pulled from thin-walled borosilicate glass with resistances of between 3 and 8 MS2 when filled with intracellular solution (140 mM potassium gluconate, 10 mM KCl, 1 mM EGTA-Na, 10 mM HEPES, 4 mM Na2ATP, 0.3 mM Na-GTP). The peptides of SEQ ID NOs:2, 3, 4 or 5 (LAT7771, LAT7772, LAT7773 or LAT7774) were diluted in the tissue bath at a concentration of 5 μM.
A concentric bipolar stimulating electrode was placed appropriately either on the dorsal root or dorsal root entry zone to evoke postsynaptic potentials/currents in recorded cells (see FIG. 1). […] EPSPs/EPSCs were confirmed as monosynaptic on the basis of being characterised by a constant latency and rise-time with few failures.
Recordings were monitored on an oscilloscope and stored on digital audio tapes for later off-line analysis. In addition, data were low-pass filtered at 2-5 kHz, (1 kHz for voltage-clamp data), digitized at 2-10 kHz and stored on a PC running pCLAMP 10 data acquisition software (Axon Instruments). Analysis of electrophysiological data was carried out using Clampfit 10 software.

For the next data set, the system named is dorsal horn neurones. Nature of the data set: whole-cell patch clamp recording in spinal cord slices from Chung models of neuropathic pain: membrane properties of dorsal horn neurones. The data set is classed as cell-based, rat. The conditions noted are these: peptide 5 μM.
Description: as §1
The spinal nerve ligation model (Chung model) was first reported by Kim and Chung (1992; Pain, 50(3):355-63) and involves a single tight ligation of the L5 spinal nerve. […] This model has been used as a “gold standard” model for assessing the efficacy of novel compounds targeting neuropathic pain.
Adult male Sprague-Dawley rats, 8-9 weeks old, weighing 220-250 g at the time of surgery, were purchased from Charles River UK Ltd. The animals were housed in groups of 4 in an air-conditioned room on a 12-hour light/dark cycle. Food and water were available ad libitum. They were allowed to acclimatise to the experimental environment for three days by leaving them on a raised metal mesh for at least 40 min. The baseline paw withdrawal threshold (PWT) was examined using a series of graduated von Frey hairs for 3 consecutive days before surgery and re-assessed on the 6th to 8th day after surgery and on the 12th to 14th day after surgery before drug dosing. Each rat was anaesthetized with 5% isoflurane mixed with oxygen (2L per min) followed by an intramuscular (i.m.) injection of ketamine 90 mg/kg plus xylazine 10 mg/kg. The back was shaved and sterilized with povidone-iodine. The animal was placed in a prone position and a para-medial incision was made on the skin covering the L4-6 level. The L5 spinal nerve was carefully isolated and tightly ligated with 6/0 silk suture. The wound was then closed in layers after a complete hemostasis. A single dose of antibiotics (Amoxipen, 15 mg/rat, i.p.) was routinely given for prevention of infection after surgery. The animals were placed in a temperature-controlled recovery chamber until fully awake before being returned to their home cages.
as §2, §3
Whole-cell recordings were performed at 34-35° C. from Lamina I or II neurones in the dorsal horn of the spinal cord slices using Axopatch 1D and/or Multiclamp 700B amplifies and using the “blind” version of the patch-clamp technique. […]

The nature of data set [2]: solubility in distilled water.

As to CRIVYDSNCG [LAT7774], the “effect on dorsal root-evoked EPSPs / excitatory synaptic transmission (in words)” value in data set [1] is “no effect on dorsal root evoked (0.1 Hz) EPSPs in 4 neurones; also recorded: minor reduction in two; also recorded: increased EPSPs in one; also recorded: both facilitating and inhibiting these inputs; also recorded: small decrease in EPSPs; also recorded: lack of effect; also recorded: increase in EPSPs”. In the data set with dorsal horn neurones, the “effect on inward rectification (in words)” value is reported as “changes in inward rectification” and the “effect on membrane potential / postsynaptic membrane properties (in words)” value is “little effect on a further 2 dorsal horn neurones; also recorded: hyperpolarisation; also recorded: depolarisation”. Further, in the data set with dorsal horn neurones (all cells), the “Input Resistance, mean in presence of peptide” value was 294.0±62.2 MΩ and 294.0 MΩ. Besides, the “Membrane Potential, mean in presence of peptide” value with dorsal horn neurones (all cells, ipsilateral to injury) is −59.8±3.6 mV and −59.8 mV. Besides, in the data set on dorsal horn neurones (control = 100), the “Normalised Input Resistance, mean in presence of peptide” value came to 121.2 and the “Normalised Input Resistance, ΔIR” value is reported as −21.2. Also, the “reversal potential of peptide-induced response (intersection of VI relations)” value in the data set on dorsal horn neurones (individual neurones) was “around −100 mV and ~−65 mV and around −80 mV and ~−85 mV and around −95 mV and around −55 mV and around −85 mV”. Besides, in the data set with dorsal horn neurones (rest = 100), the “Normalised Membrane Potential, mean in presence of peptide” value amounted to 100.9 and the “Normalised Membrane Potential, ΔVm” value is on record as −0.9. The “solubility in distilled water” value in data set [2] was “soluble”.
